Measured values as given in paper PMC6627746, “Pharmacological Properties of the Type 1 Tyramine Receptor in the Diamondback Moth, Plutella xylostella” (International Journal of Molecular Sciences, 2019).

Assays:
PxTAR1 [1] = biological target: T1, PxTAR1 (Plutella xylostella, UniProt A0A4D6I7S9); test: intracellular Ca2+ assay, Cal-590 AM, confocal imaging, stable HEK-293 line; format: cell-based
T1 construct: gene tar1; full-length ORF, 467 residues, 52266 Da; lentiviral vector pEB-TAR1-3flag-copGFP(T2A)PURO (3flag tag, GFP co-expressed via T2A)
T1 sequence (A0A4D6I7S9 1-467): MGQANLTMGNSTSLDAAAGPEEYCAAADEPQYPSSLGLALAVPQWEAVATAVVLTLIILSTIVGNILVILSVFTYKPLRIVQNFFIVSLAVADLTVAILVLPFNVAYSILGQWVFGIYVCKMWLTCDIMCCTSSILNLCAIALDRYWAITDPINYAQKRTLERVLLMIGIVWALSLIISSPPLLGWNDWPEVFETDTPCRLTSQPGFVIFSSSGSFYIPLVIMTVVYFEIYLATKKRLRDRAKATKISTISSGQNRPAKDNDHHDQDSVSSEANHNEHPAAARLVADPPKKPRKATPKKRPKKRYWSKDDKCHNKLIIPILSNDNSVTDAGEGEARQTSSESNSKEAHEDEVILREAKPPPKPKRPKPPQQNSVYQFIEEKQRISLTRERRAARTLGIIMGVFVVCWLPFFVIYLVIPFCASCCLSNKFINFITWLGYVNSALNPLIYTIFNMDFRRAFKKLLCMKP

PxTAR1 [2] = biological target: T1, PxTAR1; test: cAMP ELISA (Parameter Assay Kit), TAR1/[…] cells; format: cell-based

| Structure (SMILES) | EC50 (PxTAR1 [1]) [nM] | IC50 (PxTAR1 [2]) [µM] |
| --- | --- | --- |
| NCCc1ccc(O)cc1 [tyramine] | 13.1 | 0.446 |
| NC[C@H](O)c1ccc(O)cc1 [octopamine] | – | 13.7 |
| CNC=Nc1ccc(C)cc1C [DPMF, N2-(2,4-Dimethylphenyl)-N1-methyformamidine] | 84.5 | – |
| C=C(C)[C@@H]1CC=C(C)C(=O)C1 [L(-)-carvone] | 1.15 | – |
